Reference: US4151281A, “Medicinal preparation for the treatment of collagenoses of a rheumatoid nature” (priority 1977, dated 1979)

Tests used:
systemic scleroderma [1] = details: known preparations; cited from earlier work
[2] = cited from earlier work
[3] = acute toxicity, single dose by probe into the stomach, albino mice, 3 days observation (Litchfield and Wilcoxson); details: mouse, in vivo, po, albino mice 16-17 g, limits in parentheses
Description: The proposed preparation was tested for toxicity in the acute and chronic tests. The acute toxicity of the preparation was determined in tests in albino mice (weighing 16 to 17 g) by introducing (by means of a probe into the stomach) amounts equal to 1,000 to 5,000 mg/kg of the animals body weight. Each dose was tested in five animals. Observation was continued for three days.

[4] = single administration by probe into the stomach to narcotized cats; type: in vivo
Description: After a 1,000 mg/kg dose, these symptoms are more pronounced.

[5] = chronic toxicity test, daily doses for three months, white rats; type: in vivo; details: for Index of anti-toxic function of the liver (quantity of isolated benzoic acid): P = 0.05
Description: […] Each dose was investigated in 20 animals (10 males and 10 females). Twenty rats served as controls. Changes in weight were recorded, the general status and behavior were observed, the peripheral blood picture was examined (hemoglobin, erythrocytes, leukocytes, thrombocytes, the leukocytary formula). For determining the functional state of the liver, kidneys, the pancreas, some biochemical indices of the urine (albumin, sugar, bile pigments) and the blood (sugar, cholesterol, bilirubin, urea, alkaline phosphatase, chlorides) were examined, just as the antitoxic function of the liver.
After the end of the tests the animals were slaughtered by decapitation: part of them immediately after the administration of the preparation, part-ten days later.
The internal organs of the slaughtered animals were examined both macro- and microscopically.

normal fibroblasts = assay: 48-hour study of effect on cell growth in a culture of normal fibroblasts from healthy donors; type: cell-based; details: Fibroblast, 100-gamma per 1 ml of medium, read-out: reduction of the number of cells in the culture
Text: This fact explains to a certain degree the action mechanism of the preparation in cases of systemic scleroderma.

rheumatoid arthritis = assay: clinical trial in patients with rheumatoid arthritis; type: in vivo
Description: (§1) The method of treatment consists in oral administration of the proposed preparation in 0.1 to 0.2 g doses in tablet form […], or in the form of a 5% solution for injections with 5 ml doses once a day. The daily dose shall not be over 0.6 g per patient.
The main group (69 persons) consisted of patients with rheumatoid arthritis in the 2nd and 3rd degree of activity.

[6] = test system: systemic lupus erythematosus; assay: clinical treatment of systemic lupus erythematosus; type: in vivo, patients
Description: as §1
Eight patients were treated for systemic lupus erythematosus.

systemic scleroderma [7] = assay: clinical treatment of systemic scleroderma; type: in vivo, patients
Description: as §1
Five patients were treated for systemic scleroderma. […] One of these patients, following a 1.5 year course of treatment, resumed work after a three-year interval caused by the disease.

adrenal cortex = assay: corticosteroid concentration in the blood of rheumatoid arthritis or systemic lupus erythematosus patients during clinical trials; type: in vivo; details: regularly given
Text: Accordingly, the observed increase of the concentration of corticosteroids in the blood of rheumatoid arthritis or systemic lupus erythematosus patients, regularly given the proposed preparation during clinical trials in the above mentioned doses, testifies to its stimulating effect on the andrenal cortex.

[8] = side effects and action on lasting administration, compared with known remedies for collagenoses; type: in vivo
[9] = most of the patients, continued treatment

CC(C)Cc1ccc(C(C)C(=O)O)cc1 (stereo not shown) [Brufen]
whether the above results are produced in systemic scleroderma (systemic scleroderma [1]): not produced

CCN(CC)CCCC(C)Nc1ccnc2cc(Cl)ccc12 (stereo not shown) [Delagil]
complications of antimalarial preparations ([2]; treatment of collagenoses of a rheumatoid nature): cause leukopenia, and also affect the acoustic and optic nerves, the liver, the myocardium

COc1ccc2c(c1)c(CC(=O)O)c(C)n2C(=O)c1ccc(Cl)cc1 [Indometacin]
whether the above results are produced in systemic scleroderma (systemic scleroderma [1]): not produced
mental disorders ([2]; derivatives of indole): confused consciousness, somnolency
ulcerogenic effect ([2]; derivatives of indole, ulceration of the stomach, esophagus, the intestine): possess an ulcerogenic effect

Cc1[nH]c(=O)[nH]c(=O)c1S(=O)(=O)Nc1ccc(S(=O)(=O)c2ccc(NS(=O)(=O)c3c(C)[nH]c(=O)[nH]c3=O)cc2)cc1 [preparation, p,p-/2,4-dioxy-6-methyl pyrimidinyl-5-sulfonamino/diphenyl sulfone]
LD50 at 72 h [3]: 2600 mg/kg
symptoms ([4]; single 500 mg/kg): unrest is observed (motorial excitation, mewing, salivation and vomiting)
time after administration at which unrest is observed ([4]; single 500 mg/kg): 10 to 20 min
condition on the second day after administration ([4]; single 1,000 mg/kg): returned to normal
symptoms ([4]; single 1,000 mg/kg): these symptoms are more pronounced. There is repeated vomiting and loss of appetite
visible changes ([4]; single 100 to 200 mg/kg): no visible changes
Index of anti-toxic function of the liver (quantity of isolated benzoic acid) ([5]; females, after 3 months of 100 mg/kg oral doses (controls 10.1±5.1)): 10.9±2.2
Index of anti-toxic function of the liver (quantity of isolated benzoic acid) ([5]; males, after 3 months of 100 mg/kg oral doses (controls 6.68±0.33)): 6.5±1.14
fattiness at post mortem examination ([5]; rat, in vivo): good fattiness
macro- and microscopic examination of organs ([5]; rat, in vivo): no pathological changes
weight of thyroid gland, testes, spleen and adrenal glands versus control group ([5]; rat, in vivo): did not differ
inhibition at 100 µg/mL (normal fibroblasts): 30%
articular index after treatment, average (rheumatoid arthritis; 61 patients, from 46-48 points): 16-20 points
gravest patients who became capable of taking care of themselves unaided (rheumatoid arthritis; administration for 1.5 to 2 years, three bed-ridden for 3 to 5 years): Eight
first compression force after treatment, average (rheumatoid arthritis; all the patients, from 14.4±1.7 kgf): 22.0±2.1 kgf
corticosteroid content in the blood (rheumatoid arthritis; due to the increasing activity of the 11-oxicorticosteroids): increase
patients with articular index without change (rheumatoid arthritis; during the period of treatment): 8 patients
patients with reduced articular index (rheumatoid arthritis; during the period of treatment): 61 patients
C-reactive protein after treatment (rheumatoid arthritis; from (++++), most of the patients, continued treatment): (++) and even (+)
patients in whom the pain syndrome disappeared (rheumatoid arthritis; majority of patients, on the 10th to 12th day): 51
ESR (rheumatoid arthritis; [9]): reduction
reduction of the sialic acid content of the blood (rheumatoid arthritis; [9]): 0.05 optical density units
time to beginning of improvement of therapeutic indices (rheumatoid arthritis; not later than, after the beginning of treatment): 3 to 4 weeks
patients in whom morning-time torpidity disappeared completely (rheumatoid arthritis; of 69 patients): 48 patients
patients managing on essentially reduced doses of corticosteroids (rheumatoid arthritis; of the eight gravest patients): six
patients who do not need corticosteroids any more (rheumatoid arthritis; of the eight gravest patients): two
patients with only an abatement of the pain syndrome (arthralgia) (rheumatoid arthritis; other patients): 18 patients
period of morning-time torpidity after treatment (rheumatoid arthritis; other patients, shortened from 103.3±14.4 min): 41.4 ± 9.73 min
patients with abatement of morning-time torpidity and greater scope of joint movement (rheumatoid arthritis; out of the 69 patients): 59 patients
leukocyte count (rheumatoid arthritis; patients with leukopenias or leukocytoses accompanying rheumatoid arthritis): tendency towards the normalization
pain syndrome towards the end of the first week of treatment (rheumatoid arthritis; rheumatoid arthritis): tangibly abated
patients in whom improvement took much longer (rheumatoid arthritis; rheumatoid arthritis): 8 patients
complete recovery ([6]; of eight patients, intake for two years): one
effect in the other cases on complications due to corticosteroids and quinoline preparations ([6]; other cases of eight patients): substantially alleviate the complications
reduction of skin induration, flexion contracture of the hand and sensation of skin tension (systemic scleroderma [7]; five patients): All of them manifested a reduction
patients who resumed work (systemic scleroderma [7]; of five patients, 1.5 year course, after a three-year interval): One
concentration of corticosteroids in the blood (adrenal cortex): increase
function of the adrenal cortex ([8]; as testified by rising corticosteroids content of the blood): stimulates the function of the adrenal cortex
complications of indole derivatives (ulceration, mental disorders) ([8]; even when used for many years): does not cause such complications
dosage of prescribed corticosteroids ([8]; in vivo): to be reduced and, in individual cases, discontinuing them altogether
general and water-and-salt metabolic disorders ([8]; in vivo): does not cause general and water-and-salt metabolic disorders
toxicity ([8]; in vivo): low toxicity
complications of antimalarials (leukopenia; acoustic and optic nerves, liver, myocardium) ([8]; lasting administration (1-2 years and more)): does not cause the above-mentioned complications
pre-existing metabolic disorders ([8]; when present): tend to normalize
